Assays:
human MOP receptor = human MOP receptor (Homo sapiens, UniProt P35372); assay type: biochemical
C57BL/6J mice = settings: mouse, in vivo
wild-type mice = settings: mouse, in vivo

human MOP receptor, sequence (P35372 whole entry): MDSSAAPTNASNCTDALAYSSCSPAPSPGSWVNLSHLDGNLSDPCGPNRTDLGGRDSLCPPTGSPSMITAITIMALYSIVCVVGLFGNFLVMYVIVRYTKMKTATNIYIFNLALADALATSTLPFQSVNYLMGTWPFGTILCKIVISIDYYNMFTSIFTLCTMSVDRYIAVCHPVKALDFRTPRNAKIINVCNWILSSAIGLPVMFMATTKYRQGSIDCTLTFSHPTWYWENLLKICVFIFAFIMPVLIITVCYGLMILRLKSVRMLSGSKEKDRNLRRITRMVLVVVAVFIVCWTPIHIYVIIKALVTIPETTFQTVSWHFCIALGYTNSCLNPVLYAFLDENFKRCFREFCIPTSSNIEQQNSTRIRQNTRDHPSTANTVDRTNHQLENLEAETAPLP

SMILES	[35S]GTPγS MOP % Stim (human MOP receptor)	effect on ethanol-induced CPP (C57BL/6J mice)	motor sedative effect on conditioning days (wild-type mice)
C[C@@H](NC(=O)[C@@H](N)Cc1ccc(O)cc1)C(=O)NCC(=O)N(C)[C@@H](Cc1ccccc1)C(=O)NCCO [DAMGO]	100%	–	–
CCCC(C)C1(CC)C(=O)NC(=O)NC1=O (stereo not drawn) [pentobarbital]	–	did not alter the rewarding action of ethanol	robust motor sedative effect
